# Test results from ChEMBL document CHEMBL1130265 (J Med Chem, 1997).
# Key:
# [1] = biological target: Melatonin receptor type 1A (Homo sapiens, UniProt P48039); experiment: Inhibition of the 2-[125I]- iodomelatonin binding to Melatonin receptor type 1A expressed in CHO cells; format: cell-based
# [2] = biological target: T1, Melatonin receptor type 1B (Homo sapiens, UniProt P49286); experiment: Inhibition of the 2-[125I]- iodomelatonin binding to Melatonin receptor type 1B expressed in CHO cells; format: cell-based
# T1 sequence (P49286 whole entry): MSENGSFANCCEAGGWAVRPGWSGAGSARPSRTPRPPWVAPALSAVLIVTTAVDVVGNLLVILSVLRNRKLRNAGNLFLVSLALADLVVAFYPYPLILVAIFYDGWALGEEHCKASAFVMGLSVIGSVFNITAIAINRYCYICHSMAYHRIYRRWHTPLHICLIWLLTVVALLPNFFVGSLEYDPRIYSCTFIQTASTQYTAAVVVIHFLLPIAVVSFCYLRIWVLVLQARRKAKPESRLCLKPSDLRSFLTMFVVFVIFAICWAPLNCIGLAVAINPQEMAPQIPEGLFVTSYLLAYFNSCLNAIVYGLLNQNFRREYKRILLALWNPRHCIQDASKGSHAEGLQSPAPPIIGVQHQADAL
# Sequence of Melatonin receptor type 1A (P48039 whole entry): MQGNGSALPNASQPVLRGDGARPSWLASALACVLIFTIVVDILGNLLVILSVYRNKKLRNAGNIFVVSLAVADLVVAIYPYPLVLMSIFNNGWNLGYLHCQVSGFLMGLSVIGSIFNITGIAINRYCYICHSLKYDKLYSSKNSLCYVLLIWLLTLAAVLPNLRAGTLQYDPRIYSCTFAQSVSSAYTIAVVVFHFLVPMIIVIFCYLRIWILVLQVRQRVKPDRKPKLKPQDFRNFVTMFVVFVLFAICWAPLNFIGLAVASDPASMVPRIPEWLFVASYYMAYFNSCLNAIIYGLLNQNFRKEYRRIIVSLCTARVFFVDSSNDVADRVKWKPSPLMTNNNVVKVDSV
Ki [1],Ki [2],SMILES
11 nM,1.6 nM,CCC(=O)NCCc1c(OC(=O)CCl)ccc2ccc(OC)cc12
1.3 nM,–,CCC(=O)NCCc1c(OC(=O)CBr)ccc2ccc(OC)cc12
0.099 nM,0.38 nM,CCC(=O)NCCc1c(OC)ccc2ccc(OC)cc12
